Experimental data reported in ChEMBL document CHEMBL1201862, “PubChem BioAssay data set” (2004).
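1) Cells in 96-well plates. 2) Compound, 48 h, 5 concentrations. 3) Linear interpolation between surrounding doses. 4) Unreached endpoint = highest concentration. GI50: concentration for 50% inhibition of growth.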 Active and inactive are the calls of the source. No stated cut-off is given here; in the data, active = GI50 up to about 1.1 µM and inactive = higher.

Assays:
Test in all cases: growth of human tumour cells (NCI), 48 h
[1] = tested on: HOP-62
[2] = tested on: DLD-1
[3] = tested on: 786-0
[4] = tested on: OVCAR-5
[5] = tested on: KM-20L2
[6] = tested on: SNB-75
[7] = tested on: Hs-578T
[8] = tested on: UO-31
[9] = tested on: DU-145
[10] = tested on: SF-268
[11] = tested on: RXF 393
[12] = tested on: TK-10
[13] = tested on: NCI-H226
[14] = tested on: HCT-116
[15] = tested on: HCC 2998
[16] = tested on: SNB-19
[17] = tested on: SK-MEL-5
[18] = tested on: SW-620
[19] = tested on: SF-295
[20] = tested on: T47D
[21] = tested on: RPMI-8226
[22] = tested on: SK-OV-3
[23] = tested on: M19-MEL
[24] = tested on: SN12C
[25] = tested on: MDA-MB-435
[26] = tested on: K562
[27] = tested on: UACC-257
[28] = tested on: IGROV-1
[29] = tested on: SK-MEL-2
[30] = tested on: SK-MEL-28
[31] = tested on: MDA-N
[32] = tested on: MCF7
[33] = tested on: M14
[34] = tested on: MOLT-4
[35] = tested on: DMS-114
[36] = tested on: EKVX
[37] = tested on: OVCAR-3
[38] = tested on: CCRF-CEM
[39] = tested on: NCI-H522
[40] = tested on: LXFL 529
[41] = tested on: NCI-H460
[42] = tested on: BT-549
[43] = tested on: CAKI-1
[44] = tested on: OVCAR-4
[45] = tested on: NCI-H23
[46] = tested on: UACC-62
[47] = tested on: A498
[48] = tested on: XF498
[49] = tested on: MDA-MB-231
[50] = tested on: ACHN
[51] = tested on: SR
[52] = tested on: HOP-92
[53] = tested on: KM12
[54] = tested on: DMS-273
[55] = tested on: SNB-78
[56] = tested on: U-251
[57] = tested on: HT-29
[58] = tested on: A549
[59] = tested on: COLO 205
[60] = tested on: HCT-15
[61] = tested on: Malme-3M
[62] = tested on: SF-539
[63] = tested on: HL-60
[64] = tested on: LOX IMVI
[65] = tested on: OVCAR-8
[66] = tested on: HOP-18
[67] = tested on: PC-3

COc1cc(-c2[nH]ccc2Cl)oc1C1=C2N=C3C=C2C(C(C)C)C1CCCCCCCC3 (configuration not stated)
GI50 [1]: 774 nM (active) | GI50 [2]: 975 nM (active) | GI50 [3]: 449 nM (active) | GI50 [4]: 735 nM (active) | GI50 [5]: 308 nM (active) | GI50 [6]: 1120 nM (inactive) | GI50 [7]: 253 nM (active) | GI50 [8]: 1030 nM (active) | GI50 [9]: 614 nM (active) | GI50 [10]: 1080 nM (active) | GI50 [11]: 904 nM (active) | GI50 [12]: 2050 nM (inactive) | GI50 [13]: 1060 nM (active) | GI50 [14]: 307 nM (active) | GI50 [15]: 341 nM (active) | GI50 [16]: 1690 nM (inactive) | GI50 [17]: 321 nM (active) | GI50 [18]: 386 nM (active) | GI50 [19]: 1150 nM (inactive) | GI50 [20]: 272 nM (active) | GI50 [21]: 339 nM (active) | GI50 [22]: 1600 nM (inactive) | GI50 [23]: 603 nM (active) | GI50 [24]: 940 nM (active) | GI50 [25]: 401 nM (active) | GI50 [26]: 403 nM (active) | GI50 [27]: 1290 nM (inactive) | GI50 [28]: 993 nM (active) | GI50 [29]: 483 nM (active) | GI50 [30]: 1350 nM (inactive) | GI50 [31]: 466 nM (active) | GI50 [32]: 603 nM (active) | GI50 [33]: 438 nM (active) | GI50 [34]: 433 nM (active) | GI50 [35]: 485 nM (active) | GI50 [36]: 944 nM (active) | GI50 [37]: 610 nM (active) | GI50 [38]: 275 nM (active) | GI50 [39]: 407 nM (active) | GI50 [40]: 515 nM (active) | GI50 [41]: 319 nM (active) | GI50 [42]: 1100 nM (active) | GI50 [43]: 2000 nM (inactive) | GI50 [44]: 863 nM (active) | GI50 [45]: 738 nM (active) | GI50 [46]: 794 nM (active) | GI50 [47]: 2160 nM (inactive) | GI50 [48]: 1380 nM (inactive) | GI50 [49]: 279 nM (active) | GI50 [50]: 971 nM (active) | GI50 [51]: 292 nM (active) | GI50 [52]: 1690 nM (inactive) | GI50 [53]: 476 nM (active) | GI50 [54]: 589 nM (active) | GI50 [55]: 2830 nM (inactive) | GI50 [56]: 711 nM (active) | GI50 [57]: 252 nM (active) | GI50 [58]: 912 nM (active) | GI50 [59]: 566 nM (active) | GI50 [60]: 678 nM | GI50 [61]: 1090 nM (active) | GI50 [62]: 869 nM (active) | GI50 [63]: 299 nM (active) | GI50 [64]: 167 nM (active) | GI50 [65]: 805 nM (active) | GI50 [66]: 332 nM (active) | GI50 [67]: 332 nM (active)
